Among the data in ChEMBL document CHEMBL5131405, “Inhibition of ALK2 with bicyclic pyridyllactams” (Bioorg Med Chem Lett, 2022) are IC50 values, retold here.

Structures are written as SMILES.

The term IC50 denotes the midpoint of a concentration-inhibition curve.

The target in assay [1] is T1, Bone morphogenetic protein receptor type-1A (Homo sapiens, UniProt P36894). Put plainly: Inhibition of ALK3 (unknown origin).
In assay [2] the target is T2, Activin receptor type-1 (Homo sapiens, UniProt Q04771).
T2 sequence (Q04771 whole entry): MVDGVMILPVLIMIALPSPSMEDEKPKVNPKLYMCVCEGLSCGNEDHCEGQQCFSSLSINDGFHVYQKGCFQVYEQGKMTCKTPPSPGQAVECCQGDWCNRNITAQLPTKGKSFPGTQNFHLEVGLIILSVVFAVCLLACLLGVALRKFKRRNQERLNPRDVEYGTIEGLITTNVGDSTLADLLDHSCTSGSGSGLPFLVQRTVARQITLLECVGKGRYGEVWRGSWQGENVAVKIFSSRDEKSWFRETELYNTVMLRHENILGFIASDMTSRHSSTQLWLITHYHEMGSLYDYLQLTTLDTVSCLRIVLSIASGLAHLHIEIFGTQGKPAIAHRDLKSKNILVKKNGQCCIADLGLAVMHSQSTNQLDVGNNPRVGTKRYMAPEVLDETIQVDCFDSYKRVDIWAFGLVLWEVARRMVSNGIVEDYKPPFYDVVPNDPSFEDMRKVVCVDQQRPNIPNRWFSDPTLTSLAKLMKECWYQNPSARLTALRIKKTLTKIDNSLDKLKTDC
Put plainly: Inhibition of ALK2 (unknown origin).

Assay [3] concerns the target T2, Activin receptor type-1. Put plainly: Inhibition of ALK2 in human HeLa cells assessed as inhibition of SMAD1 phosphorylation. Format: cell-based.
The target in assay [4] is Activin receptor type-1-like (Homo sapiens, UniProt P37023). Put plainly: Inhibition of ALK1 (unknown origin). The class given is toxicity.
Assay [5] deals with T1, Bone morphogenetic protein receptor type-1A. In words: Inhibition of human recombinant ALK3 (198 to 525 residues) expressed in baculovirus-infected insect cells by ADP-Glo kinase assay. A general note: ADP-Glo turns the ADP formed in a reaction into a luminescent signal.
The target of assay [6] is T2, Activin receptor type-1. Put plainly: Inhibition of human recombinant ALK2 (172 to 499 residues) expressed in baculovirus-infected insect cells by ADP-Glo kinase assay.

T1 sequence (P36894 whole entry): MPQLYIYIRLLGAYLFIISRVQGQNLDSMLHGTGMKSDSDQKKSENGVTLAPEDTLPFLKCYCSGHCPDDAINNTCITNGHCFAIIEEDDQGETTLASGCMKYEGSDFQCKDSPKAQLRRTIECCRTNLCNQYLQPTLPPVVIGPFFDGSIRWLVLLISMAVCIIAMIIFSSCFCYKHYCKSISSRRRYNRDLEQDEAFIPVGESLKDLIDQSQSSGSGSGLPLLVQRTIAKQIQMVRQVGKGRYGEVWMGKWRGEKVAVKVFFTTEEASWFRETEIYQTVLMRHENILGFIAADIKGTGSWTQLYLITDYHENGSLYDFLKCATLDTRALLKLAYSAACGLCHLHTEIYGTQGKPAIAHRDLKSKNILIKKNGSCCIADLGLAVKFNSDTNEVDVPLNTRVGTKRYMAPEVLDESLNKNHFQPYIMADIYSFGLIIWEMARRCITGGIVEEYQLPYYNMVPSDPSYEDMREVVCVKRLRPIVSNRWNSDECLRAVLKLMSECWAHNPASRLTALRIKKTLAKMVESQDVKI
Sequence of Activin receptor type-1-like (P37023 whole entry, the tested form may be a part): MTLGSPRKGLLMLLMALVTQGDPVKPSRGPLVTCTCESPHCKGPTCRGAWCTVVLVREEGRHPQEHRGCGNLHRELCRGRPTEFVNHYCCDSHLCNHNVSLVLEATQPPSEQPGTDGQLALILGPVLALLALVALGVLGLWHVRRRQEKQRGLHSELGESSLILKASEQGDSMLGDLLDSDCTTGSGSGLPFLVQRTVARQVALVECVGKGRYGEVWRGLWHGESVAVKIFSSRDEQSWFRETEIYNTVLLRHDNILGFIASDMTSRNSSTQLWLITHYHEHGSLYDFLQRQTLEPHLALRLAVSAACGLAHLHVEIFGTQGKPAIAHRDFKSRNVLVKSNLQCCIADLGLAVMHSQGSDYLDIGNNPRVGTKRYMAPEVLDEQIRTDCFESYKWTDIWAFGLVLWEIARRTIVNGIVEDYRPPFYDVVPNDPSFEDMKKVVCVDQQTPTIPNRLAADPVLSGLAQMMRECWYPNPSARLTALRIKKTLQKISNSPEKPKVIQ

With `Nc1ncc(-c2cnn(C3CCNCC3)c2)c2c1C(=O)N(C1C3CC4CC(C3)CC1C4)CC2` (stereo unspecified), the IC50 in assay [1] came to 400 nM; in assay [2] it was 5.3 nM; in assay [3], 415 nM; in assay [4] it was 27 nM.

As to `C[C@@H]1CCCN1Cc1ccc(-c2cnc(N)c(C(=O)N[C@H]3CC[C@](C)(O)CC3)c2)cc1F`, the 50% inhibitory concentration (IC50) in assay [5] was 560 nM; in assay [6] it was 3.6 nM.
